Legend:
[1] = dehydration-rehydration of supported lipid bilayers (SLBs), microscopy and FRAP; assay type: physicochemical; conditions: supported lipid bilayers on glass
Procedure: (§1) The anhydrobiotic membrane preservation properties of the trehalose polymers on supported lipid bilayers (SLBs) were tested. […] Moreover, lyophilized calcein-loaded trehalose-polymer vesicles could be rehydrated without contents loss and maintenance of vesicle size distribution. The cryo-preservative effects of trehalose and other sugars on proteins and membrane structures has been known for some time, though high solution concentrations are required; here we find that preservative properties at mole ratios of about 10% to about 30%. This preservative property permits long-term anhydrous storage of reagents without compromising therapeutic effect. Thus, membrane-anchored polysaccharides may be a useful biotechnology tool for production of systemic drug carriers that are stable to attack from serum proteins, dehydration and freeze-drying.
FIGS. 10A and 10B are photomicrographs of supported lipid bilayers containing (A) phospholipid dimer 7 or (B) phospholipid polymer. The mole percent is as indicated. The top rows of (A) and (B) show freshly formed SLBs; whereas the bottom rows show SLBs after drying and rehydration. The photos were taken at 10× magnification and the scale bar is 100 μm. FIGS. 10C and 10D show FRAP containing SLBs with 10% phospholipid polymer before and after dehydration, respectively. These photos were taken at 40× magnification and the scale bar is 40 μm.

[2] = contents release assay of calcein-loaded vesicles in fetal bovine serum; assay type: in vitro ADME; conditions: vesicles of 80% DPPC and 20% dimer
Text: […] Vesicle stabilization by the glycolipid derivatives was strongly affected by degree of oligomerization and solubility. […] Though there is clearly an advantage to structures larger than a dimer, larger oligomer or polymers may be limited by their ability to incorporate into the lipid membrane. Thus, it was difficult to achieve mole percent incorporation levels higher than 10% for phospholipid glycopolymer 9 and 30% for cholesterol glycopolymer 8.

[3] = lyophilization and rehydration of calcein-loaded LUVs (contents loss, DLS, cryo-TEM); assay type: physicochemical; conditions: used in place of cholesterol glycopolymer 8 in DPPC or hydrogenated ePC LUVs
Procedure: as §1
Sugar solutions (10:1 sugar:lipid) are known to protect LUVs from contents loss and fusion upon lyophilization and rehydration. It was find that covalent presentation of polymeric trehalose on multiple lipid anchors confers significant membrane anhydrobiotic and cryo-protection at sugar:lipid ratios of 0.1-0.3. […] LUVs containing phospholipid glycodimer 7 and phospholipid glycopolymer 9 readily deposited, possibly by virtue of higher membrane fluidity.

Row | Compound | protection of SLBs from delamination on drying/rehydration [1] | contents loss upon exposure to serum [2] | contents loss and fusion after lyophilization and rehydration [3]
1 | trehalose cholesterol thioglycolate thioether dimer | protect supported lipid bilayers from delamination upon drying | greatly minimized | –
2 | CC(C)CCC[C@@H](C)[C@H]1CC[C@H]2[C@@H]3CC=C4C[C@@H](O)CC[C@]4(C)[C@H]3CC[C@]12C [cholesterol] | – | – | total contents loss and extensive fusion

Reference: patent publication US9446147B2, “Membrane stabilizing compositions and methods” (The Ohio State University, priority 2011, dated 2016)
